{
  "source": "patent US12527812B2",
  "about": "“Esophageal stricture suppressing agent” (priority 2019, dated 2026)",
  "key": {"[1]": {"tested_on": "esophageal stricture after entire circumference (100%) ESD", "test": "esophageal entire circumference (100%) ESD model, degree of esophageal stricture by macroscopical findings and histopathological analysis (Masson staining)", "format": "in vivo", "excerpt": "For the production of an esophageal entire circumference (100%) ESD model, miniature pigs for experiments were used.\nAs miniature pigs, three groups of a physiological saline administered group, a steroid preparation (Kenacort) administered group, and a CHST15 siRNA (manufactured by Hokkaido System Science Co., Ltd., lot number: 40481638) administered group were used (n=1/group). The miniature pig in each group was orally inserted with an upper gastrointestinal endoscope under general anesthesia and respiratory control, and an entire circumference (100%) ESD was performed using a dual knife with a total length of […] between 15 cm and 25 cm from the portal dentition. Into an entire circumference artificial ulcer immediately after preforming ESD was injected 2 mL in total of an administration solution (physiological saline, steroid preparation, CHST15 siRNA, 250 nM solution) using an endoscopic injection needle at a total of 20 locations so as to evenly cover the entire circumference from the ulcer bottom.\nIf no treatment is performed after ESD, esophageal stricture will develop within 2 weeks and food will not pass through, and the miniature pig will die within 4 weeks thereafter, so that the observation period after a single time administration was set to 2 weeks, the entire group was slaughtered after 2 weeks (Day 14), and the degree of esophageal stricture was investigated by macroscopical findings, and histopathological analysis (Masson staining)."}, "[2]": {"tested_on": "stricture esophageal tissue after ESD", "details": "half circumferential (50%) ESD; Document 14; cited from earlier work"}, "[3]": {"details": "single local injection immediately after ESD, Day 14, n=1/group"}},
  "data": [
    {"substance": "CHST15 siRNA: siRNA having a structure in which the RNAs described in SEQ ID NOs:1 and 2 are hybridized; suppresses expression of the CHST15 gene (chain 1 GGAGCAGAGCAAGAUGAAUACAAUCAG; chain 2 GAUUGUAUUCAUCUUGCUCUGCUCCAU; chemistry not given here)", "values": [
      {"measurement": "suppressing effect of esophageal stricture after entire circumference ESD (overall)", "setting": "[1]; consideration / summary of Example 1", "value": "remarkable stricture suppressing effect"},
      {"measurement": "damage of the muscular layer (pathological findings, Masson staining)", "setting": "[1]; pig, in vivo", "value": "no damage of the muscular layer was observed"},
      {"measurement": "artificial ulcer repair / regenerated epithelium (pathological findings, Masson staining)", "setting": "[1]; [3]", "value": "almost covered with regenerated epithelium"},
      {"measurement": "edible state (macroscopical findings)", "setting": "[1]; [3]", "value": "edible"},
      {"measurement": "esophageal stricture / obstruction (macroscopical findings)", "setting": "[1]; [3]", "value": "no stricture or obstruction"},
      {"measurement": "fibrosis deeper than the ulcer floor (pathological findings, Masson staining)", "setting": "[1]; [3]", "value": "no pathological fibrosis"},
      {"measurement": "shortening of esophageal length (macroscopical findings)", "setting": "[1]; single local injection into artificial ulcer immediately after ESD, 2 mL in total at 20 locations (CHST15 siRNA 250 nM solution), Day 14, n=1/group", "value": "substantially not observed"},
      {"measurement": "fibrosis when expression of CHST15 mRNA is suppressed", "setting": "[2]", "value": "fibrosis is suppressed"}
    ]}
  ]
}
